Data reported in US20240173353A1, “UNIVERSAL CHIMERIC ANTIGEN RECEPTOR T-CELL AND APPLICATION THEREOF” (SHANGHAI IASO BIOTECHNOLOGY CO., LTD., priority 2021, published 2024).

Key:
anti-BCMA-CAR-T cells = assay: CD107a translocation of anti-BCMA-CAR-T cells co-incubated with target cells; type: cell-based, human; conditions: wild-type anti-BCMA CAR-T, adjusted to 0 nM
CD19-UCART cells = assay: CD107a release of CD19-UCART co-incubated with Raji, dynamic ponatinib concentration; type: cell-based, human
Experimental: In this example, the inventors used the prepared CD19-UCART and Km-edited CD19-UCART cells in the experiments. […] The next day, the concentration was adjusted to 0, 50, 100 and 200 nM in the group of 200 nM pretreatment overnight, and the concentration was adjusted to 0, 100, 200 nM and 300 nM in the group of 500 nM pretreatment overnight. […] Two technical replicates were set for each group. After 4 hr of co-incubation, CD107a release in CD8 and CAR double-positive cells was detected.

T cells = assay: T cell activation by anti-CD3/CD28 DynaBeads, CD25/CD69/4-1BB expression by flow cytometry
Source text: The inventors pre-treated T cells with dasatinib or DMSO for 5 hr, then activated T cells with anti-CD3/CD28 DynaBeads for 24 hr, and then detected the expression of activation molecules CD25, CD69 and 4-1BB by flow cytometry.
In order to verify the tolerance of the LCK-T316I mutation to the function of dasatinib, the inventors carried out experimental verification on the T cells with LCK edited with different sgRNA lengths prepared in Example 2.
The inventors isolated CD3-positive T cells from human peripheral blood and divided them into eleven portions for processing, with 1e5 cells in each portion. One of these portions was not treated with dasatinib, anti-CD3/CD28 DynaBeads were not added to activate TCR, and this portion was as the initial control group; the other 10 portions of cells were pretreated with different concentrations of dasatinib for 4 hr, ten concentrations ranging from 0 nM to 50 nM were set, and then anti-CD3/CD28 DynaBeads were added to activate TCR signals overnight. On the second day, the expression of CD25, CD69 and 4-1BB activation signals was detected, and the activation of TCR signals was detected. Two replicates were set for each group of experiments.
The inventors divided each of the three groups of edited cells into 6 sub-groups and cultured them in a flat-bottomed 96-well plate. Each sub-group contained two technical replicates, and each well contained 0.15×10^6 cells. […] Subsequently, the cells were cultured for 18 hr. The activated T cell surface marker molecule 4-1BB was detected by using the APC-labeled murine IgG monoclonal antibody, and the activated T cell surface marker molecule CD25 was detected by using the PE-labeled murine IgG monoclonal antibody, and the activated T cell surface marker CD69 was detected by FITC-labeled murine IgG monoclonal antibody.
The inventors conducted research using two groups of T cells (CBE3 control group and Km edited group) in the above experiments. The experimental procedure is basically the same as the above-mentioned experiment (FIG. 32B). The two groups of edited cells were each divided into 7 sub-groups and cultured them in a flat-bottomed 96-well plate. Each sub-group contained two technical replicates, and each well contained 0.15×10^6 cells. […] Subsequently, the cells were cultured for 18 hr. The activated T cell surface marker molecule 4-1BB was detected by using the APC-labeled murine IgG monoclonal antibody, and the activated T cell surface marker molecule CD25 was detected by using the PE-labeled murine IgG monoclonal antibody, and the activated T cell surface marker CD69 was detected by FITC-labeled murine IgG monoclonal antibody.

NK cells = assay: CD107a release of NK cells activated by K562; type: cell-based, human
Experimental: The inventor used Miltenyi human NK sorting magnetic beads to separate NK cells from human peripheral blood, and used DAKEWE NK medium to culture and expand them in vitro. On Day 8, a population of NK cells with more than 95% having positive CD56 expression could be obtained. These NK cells were taken out and treated with 0 nM, 100 nM and 200 nM dasatinib respectively for 24 hr, and then divided into two groups, one of which was not activated, and the other group was stimulated with MHC-class I molecule-deficient K562 cells for 5 hr. Then, the CD107a release of NK cells were detected in both of them.
The inventors isolated NK cells from human PBMCs, and then cultured and differentiated them in NK medium to obtain CD56-positive NK cells with a purity higher than 95%. The exploration of the threshold of NK activation with dasatinib was carried out with seven concentrations in the range of 0-50 nM, namely 0, 10, 20, 25, 30, 40 and 50 nM, and the treatment was carried out overnight. The next day, the cells were resuspended with NK medium and activated with K562. Lymphocyte activator was used as a positive control for activation, and a part of NK cells that were not activated by K562 were also kept. Two replicates were set for each group. anti-CD107a antibody and monensin were added while carrying out activation, and after co-incubation for 6 hr, the CD107a release of CD56-positive NK cells was detected by flow cytometry.
The inventors isolated NK cells from human PBMCs, and then cultured and differentiated them in NK medium to obtain CD56-positive NK cells with a purity higher than 95%. Three pretreatments were done respectively (1) absence of dasatinib pretreatment; (2) pretreatment with […] pretreatment with 50 nM dasatinib, and the cells were cultured overnight. The next day, the concentration of dasatinib was reduced, and the concentration was adjusted to 0, 7.5, 12.5, 17.5 and 25 nM respectively. […] Two replicates were set for each group.
In order to repeatedly verify that the inhibition of NK cell activation function by dasatinib has an extended effect, the inventors repeated the above experiment. […] After 4 hr of co-incubation, CD107a release from CD56 positive NK cells was detected.
The inventors used CD3-negative cells in human PBMCs, which contained more than 5% of CD56-positive NK cells. […] The next day, the cells were resuspended with NK medium and activated with K562. Lymphocyte activator was used as a positive control for activation, and a part of NK cells that were not activated by K562 were also kept. Two replicates were set for each group. anti-CD107a antibody and monensin were added while carrying out activation, and after co-incubation for 6 hr, the CD107a release of CD56-positive NK cells was detected by flow cytometry.
The inventors isolated NK cells from human PBMCs, and then cultured and differentiated them in NK medium to obtain CD56-positive NK cells with a purity higher than 95%. […] Two replicates were set for each group.

[1] = CBE3 control group, 200 nM ponatinib
[2] = Km edited group, 500 nM ponatinib
[3] = Km group (30% T316I), 200 nM ponatinib
[4] = Sg12 control group, 200 nM ponatinib
[5] = second experiment, Km group, 200 nM ponatinib

Cc1ccc(C(=O)Nc2ccc(CN3CCN(C)CC3)c(C(F)(F)F)c2)cc1C#Cc1cnc2cccnn12 [ponatinib]
percentage of CD107a positive cells (anti-BCMA-CAR-T cells; 200 nM ponatinib pretreatment, RPMI-8226 4 hr): about 16% | percentage of CD107a positive cells (anti-BCMA-CAR-T cells; 500 nM pretreatment): about 3% | concentration that shuts down activation of CD19-UCART with LCK-T316I mutation (CD19-UCART cells): 500 nM | percentage of CD107a-positive cells (CD19-UCART cells; CD19-UCART group, 200 nM pretreatment overnight, adjusted to 0 nM, Raji 4 hr): 17.2% | percentage of CD107a-positive cells (CD19-UCART cells; CD19-UCART group, 200 nM pretreatment, 50 nM): 0.485% | percentage of CD107a-positive cells (CD19-UCART cells; CD19-UCART group, 200 nM pretreatment, 200 nM, Raji 4 hr): 0.735% | percentage of CD107a-positive cells (CD19-UCART cells; CD19-UCART group, 500 nM pretreatment, 300 nM): 0.495% | percentage of CD107a-positive cells (CD19-UCART cells; CD19-UCART group, 500 nM pretreatment, adjusted to 0 nM): 1.73% | percentage of CD107a-positive cells (CD19-UCART cells; Km-edited CD19-UCART group, 200 nM pretreatment, 200 nM): 5.12% | percentage of CD107a-positive cells (CD19-UCART cells; Km-edited CD19-UCART group, 200 nM pretreatment, adjusted to 0 nM): 16.6% | percentage of CD107a-positive cells (CD19-UCART cells; Km-edited CD19-UCART group, 500 nM pretreatment, 300 nM): 1.47% | percentage of CD107a-positive cells (CD19-UCART cells; Km-edited CD19-UCART group, 500 nM pretreatment, adjusted to 0 nM): 11.15% | number of cells (survival of T cells) (T cells; 1000 nM ponatinib): significantly reduced | CD25 and 4-1BB double-positive cells (T cells; [1]): 1.00% | CD25 and CD69 double-positive cells (T cells; [1]): 5.59% | CD25 and 4-1BB double-positive cells (T cells; [2]): 2.42% | CD25 and CD69 double-positive cells (T cells; [2]): 6.75% | CD25 and 4-1BB double-positive cells (T cells; [3]): 24.1% | CD25 and CD69 double-positive cells (T cells; [3]): 17.7% | CD25 and 4-1BB double-positive cells (T cells; [4]): 1.85% | CD25 and CD69 double-positive cells (T cells; [4]): 5.31% | concentration that effectively inhibits activation of T cells (T cells; in vitro): 200 nM | cells expressing CD25 and 4-1BB (T cells; [5]): 19.71% | cells expressing CD25 and CD69 (T cells; [5]): 23.9% | release of CD107a (NK cells; NK cells, highest ponatinib pretreatment (200 nM), lowered to 0 nM, K562): above 38% | concentration that effectively inhibits NK cell activation in vitro (NK cells; ponatinib): 200 nM
